# Measurements: patent US10570121B2, “Substituted dihydroisoquinolinone compounds” (priority 2014, dated 2020)
# Like-named read-outs stand apart in the source and are kept apart here.
# Legend:
# WT EZH2 = WT EZH2 (Homo sapiens (Human), UniProt Q15910); assay: WT EZH2 nucleosome assay (10X SAM, high SAM conditions); type: biochemical; settings: 15 uM SAM, Ki app from competitive inhibition fit
# Method: (§1) The genes for EZH2, EED, SUZ12, and RBBP4 proteins were cloned into pBacPAK9 vectors (Clontech). RBBP4 was FLAG tagged on the N-terminal end. The baculovirus expressions of these proteins were used to co-infect SF9 insect cells. Insect cell pellets were lysed in a buffer containing 25 mM Tris pH8.0, 300 mM NaCl, 0.5 mM TCEP, complete EDTA-free protease inhibitor (Roche), 0.1% NP-40. The supernatant from the lysate was incubated with FLAG® M2 antibody resin (Sigma). The resin was washed on the chromatography column and eluted with 0.2 mg/ml FLAG peptide. The elute was incubated with omnicleave nucleases (Epicentre Technologies) at 4° C. overnight, then concentrated and loaded onto a Superdex 200 (GE Healthcare) column. The Superdex 200 column was eluted with 25 mM Tris pH8.0, 150 mM NaCl, 0.5 mM TCEP. Fractions containing the PRC2 complex were pooled.
# (§2) A. Compound preparation • 1.
# (§3) B. Reagent preparation • 1. […] Dilute TCA to 20% in DI water
# (§4) C. Enzyme reaction • 1. […] Some compounds were tested under high SAM conditions.
# (§5) D. Data analysis • 1. IC50 values were determined by fitting the data to a 4-parameter IC50 equation using proprietary curve fitting software. • 2. For compounds tested under high SAM conditions, Ki^app values were obtained by fitting the dose response curve to a model for competitive inhibition using proprietary curve fitting software. Preparation of HeLa Oligonucleosomes: Reagents • Cell Pellet: 15 L HeLa S3 (Accelgen)+6 L HeLa S3 (in house) • Mnase (Worthington Biochemicals) Equipment • SW-28 Rotor • Dounce Homogenizer/B Pestle Buffers • Lysis: 20 mM Hepes pH 7.5, 0.25M Sucrose, 3 mM MgCl2, 0.5% Nonidet P-40, 0.5 mM TCEP, 1 Roche Protease Tablet • B: 20 mM Hepes pH7.5, 3 mM MgCl2, 0.5 mM EDTA, 0.5 mM TCEP, 1 Roche Protease Tablet • MSB: 20 mM Hepes pH7.5, 0.4 M NaCl, 1 mM EDTA, 5% v/v Glycerol, 0.5 mM TCEP, 0.2 mM PMSF • LSB: 20 mM Hepes pH7.5, 0.1M NaCl, 1 mM EDTA, 0.5 mM TCEP, 0.2 mM PMSF • NG: 20 mM Hepes pH7.5, 1 mM EDTA, 0.4 m NaCl, 0.2 mM PMSF, 0.5 mM TCEP • Storage: 20 mM Hepes pH7.5, 1 mM EDTA, 10% Glycerol, 0.2 mM PMSF, 0.5 mM TCEP Protocol
# EZH2 Mutant Y641N = EZH2 Mutant Y641N (Homo sapiens (Human), UniProt Q15910, Y641N); assay: EZH2 Mutant Y641N nucleosome assay; type: biochemical; settings: PRC2 4-protein complex 6 nM, 1.5 μM SAM, HeLa oligonucleosomes
# Method: as §1, §2, §3, §4, §5
# [1] = read-out: WT EZH2 Nucleosome assay (10X SAM) Ki
# [2] = read-out: EZH2 Mutant Y641N Nucleosome assay IC50
# [3] = EZH2 Mutant Y641N Nucleosome assay IC50 (μM)
# [4] = WT EZH2 Nucleosome assay (10X SAM) Ki (μM)
# Chain of WT EZH2 (Q15910 whole entry, looked up): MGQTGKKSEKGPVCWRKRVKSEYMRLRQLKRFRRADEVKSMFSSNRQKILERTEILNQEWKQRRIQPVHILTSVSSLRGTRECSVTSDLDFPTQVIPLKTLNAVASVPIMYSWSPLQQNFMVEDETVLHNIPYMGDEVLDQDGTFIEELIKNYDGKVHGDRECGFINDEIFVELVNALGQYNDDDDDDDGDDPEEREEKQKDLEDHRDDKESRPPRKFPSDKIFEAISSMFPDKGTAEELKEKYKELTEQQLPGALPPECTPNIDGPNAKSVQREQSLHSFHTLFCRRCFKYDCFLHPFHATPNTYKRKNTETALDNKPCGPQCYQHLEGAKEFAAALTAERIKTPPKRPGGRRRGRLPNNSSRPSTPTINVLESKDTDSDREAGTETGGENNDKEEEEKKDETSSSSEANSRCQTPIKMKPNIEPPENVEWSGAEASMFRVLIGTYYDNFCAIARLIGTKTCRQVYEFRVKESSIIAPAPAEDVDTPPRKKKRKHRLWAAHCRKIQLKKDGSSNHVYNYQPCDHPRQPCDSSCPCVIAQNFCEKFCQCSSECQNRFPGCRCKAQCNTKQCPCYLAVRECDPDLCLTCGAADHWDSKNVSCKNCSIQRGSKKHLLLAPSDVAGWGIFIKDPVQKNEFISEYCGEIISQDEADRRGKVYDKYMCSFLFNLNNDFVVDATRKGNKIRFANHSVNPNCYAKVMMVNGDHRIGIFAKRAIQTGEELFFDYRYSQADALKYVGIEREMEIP
# Chain of WT EZH2 (O75530 whole entry partner, looked up): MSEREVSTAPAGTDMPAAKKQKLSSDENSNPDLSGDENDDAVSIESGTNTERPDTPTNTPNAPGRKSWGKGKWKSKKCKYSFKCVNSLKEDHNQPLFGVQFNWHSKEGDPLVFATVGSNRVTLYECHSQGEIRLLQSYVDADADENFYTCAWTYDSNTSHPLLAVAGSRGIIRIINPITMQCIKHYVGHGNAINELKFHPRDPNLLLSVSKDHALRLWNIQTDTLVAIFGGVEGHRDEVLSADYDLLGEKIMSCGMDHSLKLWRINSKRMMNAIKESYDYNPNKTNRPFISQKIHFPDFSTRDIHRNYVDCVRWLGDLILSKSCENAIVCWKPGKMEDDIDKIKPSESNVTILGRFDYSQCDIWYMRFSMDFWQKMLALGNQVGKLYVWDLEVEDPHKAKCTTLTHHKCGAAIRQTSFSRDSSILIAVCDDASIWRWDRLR
# Chain of WT EZH2 (Q15022 whole entry partner, looked up): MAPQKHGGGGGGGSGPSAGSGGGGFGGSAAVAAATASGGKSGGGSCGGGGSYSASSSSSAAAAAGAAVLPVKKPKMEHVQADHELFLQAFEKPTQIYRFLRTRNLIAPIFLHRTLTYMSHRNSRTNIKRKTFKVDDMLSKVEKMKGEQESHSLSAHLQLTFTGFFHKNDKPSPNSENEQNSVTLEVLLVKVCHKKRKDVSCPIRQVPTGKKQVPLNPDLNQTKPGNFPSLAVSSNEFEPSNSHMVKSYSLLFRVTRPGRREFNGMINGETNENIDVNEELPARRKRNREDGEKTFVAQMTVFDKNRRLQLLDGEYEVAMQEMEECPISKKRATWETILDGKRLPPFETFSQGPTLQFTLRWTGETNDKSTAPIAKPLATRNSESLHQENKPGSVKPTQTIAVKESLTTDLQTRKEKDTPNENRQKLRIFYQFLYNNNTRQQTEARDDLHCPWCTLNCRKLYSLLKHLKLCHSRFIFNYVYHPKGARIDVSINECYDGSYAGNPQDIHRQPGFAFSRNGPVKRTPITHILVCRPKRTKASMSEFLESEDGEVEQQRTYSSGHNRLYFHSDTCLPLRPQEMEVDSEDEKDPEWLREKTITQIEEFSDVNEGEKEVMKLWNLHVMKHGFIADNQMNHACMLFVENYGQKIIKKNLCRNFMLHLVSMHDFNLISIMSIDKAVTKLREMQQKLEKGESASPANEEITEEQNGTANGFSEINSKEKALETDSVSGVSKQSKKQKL
# Chain of WT EZH2 (Q09028 whole entry partner, looked up): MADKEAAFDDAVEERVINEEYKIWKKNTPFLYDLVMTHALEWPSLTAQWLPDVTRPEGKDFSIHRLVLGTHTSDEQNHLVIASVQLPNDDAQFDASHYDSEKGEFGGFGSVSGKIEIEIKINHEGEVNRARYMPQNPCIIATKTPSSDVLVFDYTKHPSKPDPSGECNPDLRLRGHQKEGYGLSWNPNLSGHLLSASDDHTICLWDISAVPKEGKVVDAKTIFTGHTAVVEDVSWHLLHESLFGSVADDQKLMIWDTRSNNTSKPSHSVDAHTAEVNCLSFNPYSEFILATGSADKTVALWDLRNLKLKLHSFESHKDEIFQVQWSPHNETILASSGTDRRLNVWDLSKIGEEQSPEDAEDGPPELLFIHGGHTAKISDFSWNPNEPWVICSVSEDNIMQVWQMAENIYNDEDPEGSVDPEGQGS
# Chain of EZH2 Mutant Y641N (Q15910 whole entry Y641N, looked up): as the sequence (Q15910 whole entry, looked up) above, with Y641N counted along it
# Chain of EZH2 Mutant Y641N (O75530 whole entry partner, looked up): as the sequence (O75530 whole entry partner, looked up) above
# Chain of EZH2 Mutant Y641N (Q15022 whole entry partner, looked up): as the sequence (Q15022 whole entry partner, looked up) above
# Chain of EZH2 Mutant Y641N (Q09028 whole entry partner, looked up): as the sequence (Q09028 whole entry partner, looked up) above
Compound,Ki (WT EZH2; [1]) [µM],IC50 (EZH2 Mutant Y641N; [2]) [µM],IC50 (EZH2 Mutant Y641N; [3]) [µM],Ki (WT EZH2; [4]) [µM]
COC(C(C)=O)c1cc(Cl)c2c(c1Cl)C(=O)N(Cc1c(C)cc(C)[nH]c1=O)CC2 (racemic) [Example 49],0.215,0.996,,
Cc1cc(C)c(CN2CCc3c(Cl)cc(C(CO)N4CCCC4)c(Cl)c3C2=O)c(=O)[nH]1 (racemic) [Example 57],0.406,1.35,,
Cc1cc(C)c(CN2CCc3c(Cl)cc(C(CO)N4CCC(F)(F)C4)c(Cl)c3C2=O)c(=O)[nH]1 (racemic) [Example 59],0.025,0.155,,
Cc1cc(C)c(CN2CCc3c(Cl)cc(C(CO)N4CCOCC4)c(Cl)c3C2=O)c(=O)[nH]1 (racemic) [Example 60],0.031,0.18,,
Cc1cc(C)c(CN2CCc3ccc([C@@H](CO)[C@@H]4CCOC4)c(Cl)c3C2=O)c(=O)[nH]1 (racemic) [Example 64],0.007,0.043,,
Cc1cc(C)c(CN2CCc3ccc([C@H](CO)[C@@H]4CCOC4)c(Cl)c3C2=O)c(=O)[nH]1 (racemic) [Example 65],0.006,0.047,,
[2H]C([2H])([2H])OC(c1cc(Cl)c2c(c1Cl)C(=O)N(Cc1c(C)cc(C)[nH]c1=O)CC2)C1CCN(C(=O)CO)CC1 (racemic) [Example 70],,,0.006,
"Cc1cc(C)c(CN2CCc3c(Cl)cc(C(C)N4CCOCC4)c(Cl)c3C2=O)c(=O)[nH]1 (racemic) [Example 89, (±)-5,8-dichloro-2-[(4,6-dimethyl-2-oxo-1,2-dihydropyridin-3-yl)methyl]-7-[1-(morpholin-4-yl)ethyl]-3,4-dihydroisoquinolin-1(2H)-one]",0.008,0.088,,
COC(c1cc(C)c2c(c1Cl)C(=O)N(Cc1c(C)cc(C)[nH]c1=O)CC2)C1CNC1 (racemic) [Example 178],0.003,0.02,,
Cc1cc(C)c(CN2CCc3c(Cl)cc(C(C)N4CCN(C)CC4)c(Cl)c3C2=O)c(=O)[nH]1 (racemic) [Example 202],0.016,0.207,,
Cc1cc(C)c(CN2CCc3c(Cl)cc(C(C)N4CCNCC4)c(Cl)c3C2=O)c(=O)[nH]1 (racemic) [Example 205],0.0007,0.008,,
"Cc1cc(C)c(CN2CCc3c(Cl)cc(C(CO)N4CC[C@@H](F)C4)c(Cl)c3C2=O)c(=O)[nH]1 (single isomer, unassigned) [Example 6]",0.019,0.136,,
"Cc1cc(C)c(CN2CCc3c(Cl)cc(C(CO)N4CC[C@@H](F)C4)c(Cl)c3C2=O)c(=O)[nH]1 (single isomer, unassigned) [Example 7]",0.171,1.62,,
"CCC(OC)c1cc(Cl)c2c(c1Cl)C(=O)N(Cc1c(C)cc(C)[nH]c1=O)CC2 (single isomer, unassigned) [Example 15, 5,8-dichloro-2-[(4,6-dimethyl-2-oxo-1,2-dihydropyridin-3-yl)methyl]-7-(1-methoxypropyl)-3,4-dihydroisoquinolin-1(2H)-one]",,,0.019,0.003
"CCC(OC)c1cc(Cl)c2c(c1Cl)C(=O)N(Cc1c(C)cc(C)[nH]c1=O)CC2 (single isomer, unassigned) [Example 16, 5,8-dichloro-2-[(4,6-dimethyl-2-oxo-1,2-dihydropyridin-3-yl)methyl]-7-(1-methoxypropyl)-3,4-dihydroisoquinolin-1(2H)-one]",,,0.04,0.004
"COC(c1cc(Cl)c2c(c1Cl)C(=O)N(Cc1c(C)cc(C)[nH]c1=O)CC2)C1CCOCC1 (single isomer, unassigned) [Example 50]",0.077,0.129,,
"COC(c1cc(Cl)c2c(c1Cl)C(=O)N(Cc1c(C)cc(C)[nH]c1=O)CC2)C1CCOCC1 (single isomer, unassigned) [Example 51]",,0.002,,

Compound,Ki (WT EZH2; [1]) [µM],IC50 (EZH2 Mutant Y641N; [2]) [µM],IC50 (EZH2 Mutant Y641N; [3]) [µM],Ki (WT EZH2; [4]) [µM]
"COC(c1cc(Cl)c2c(c1Cl)C(=O)N(Cc1c(C)cc(C)[nH]c1=O)CC2)C1(O)CCOCC1 (single isomer, unassigned) [Example 52]",0.298,1.04,,
"COC(c1cc(Cl)c2c(c1Cl)C(=O)N(Cc1c(C)cc(C)[nH]c1=O)CC2)C1(O)CCOCC1 (single isomer, unassigned) [Example 53]",0.001,0.017,,
"Cc1cc(C)c(CN2CCc3c(Cl)cc([C@@H](CC#N)[C@@H]4CCOC4)c(Cl)c3C2=O)c(=O)[nH]1 (single isomer, unassigned) [Example 54]",0.004,0.012,,
"Cc1cc(OC(F)F)c(CN2CCc3c(Cl)cc(C(CO)C4CCOCC4)c(Cl)c3C2=O)c(=O)[nH]1 (single isomer, unassigned) [Example 56]",,0.004,,
"COC(c1cc(Cl)c2c(c1Cl)C(=O)N(Cc1c(C)cc(C)[nH]c1=O)CC2)C1CCN(C(=O)CC#N)CC1 (single isomer, unassigned) [Example 61]",0.031,0.127,,
"Cc1cc(C)c(CN2CCc3c(Cl)cc(C(CO)N4CC[C@H](F)C4)c(Cl)c3C2=O)c(=O)[nH]1 (single isomer, unassigned) [Example 62]",0.035,0.262,,
"Cc1cc(C)c(CN2CCc3c(Cl)cc(C(CO)N4CC[C@H](F)C4)c(Cl)c3C2=O)c(=O)[nH]1 (single isomer, unassigned) [Example 63]",0.528,4.1,,
"Cc1cc(C)c(CN2CCc3c(Cl)cc(C(CO)N4CCC(F)(F)C4)c(Cl)c3C2=O)c(=O)[nH]1 (single isomer, unassigned) [Example 66]",0.009,0.081,,
"Cc1cc(C)c(CN2CCc3c(Cl)cc(C(CO)N4CCC(F)(F)C4)c(Cl)c3C2=O)c(=O)[nH]1 (single isomer, unassigned) [Example 67]",1.6,19.5,,
"Cc1cc(C)c(CN2CCc3c(Cl)cc(C(CO)N4CCOCC4)c(Cl)c3C2=O)c(=O)[nH]1 (single isomer, unassigned) [Example 68]",0.007,0.074,,
"Cc1cc(C)c(CN2CCc3c(Cl)cc(C(CO)N4CCOCC4)c(Cl)c3C2=O)c(=O)[nH]1 (single isomer, unassigned) [Example 69]",0.417,4.31,,
"COC(c1cc(Cl)c2c(c1Cl)C(=O)N(Cc1c(C)cc(C)[nH]c1=O)CC2)C1CCN(C(=O)CC#N)CC1 (single isomer, unassigned) [Example 71]",,0.003,,
"COC(c1cc(Cl)c2c(c1Cl)C(=O)N(Cc1c(C)cc(C)[nH]c1=O)CC2)C1CCN(C=O)CC1 (single isomer, unassigned) [Example 72]",0.041,0.128,,
"COC(c1cc(Cl)c2c(c1Cl)C(=O)N(Cc1c(C)cc(C)[nH]c1=O)CC2)C1CCN(C=O)CC1 (single isomer, unassigned) [Example 73]",,0.002,,
"COc1cc(C)[nH]c(=O)c1CN1CCc2c(C)cc([C@H](OC)[C@H]3CCOC3)c(Cl)c2C1=O (single isomer, unassigned) [Example 84, 8-chloro-2-[(4-methoxy-6-methyl-2-oxo-1,2-dihydropyridin-3-yl)methyl]-7-{(R*)-methoxy[(3S*)-tetrahydrofuran-3-yl]methyl}-5-methyl-3,4-dihydroisoquinolin-1(2H)-one]",0.0002,0.002,,
"Cc1cc(C)c(CN2CCc3c(Cl)cc([C@@H](CO)[C@@H]4CCOC4)c(Cl)c3C2=O)c(=O)[nH]1 [Example 4, 5,8-dichloro-2-[(4,6-dimethyl-2-oxo-1,2-dihydropyridin-3-yl)methyl]-7-{(1S)-2-hydroxy-1-[(3S)-tetrahydrofuran-3-yl]ethyl}-3,4-dihydroisoquinolin-1(2H)-one]",,1.95,,
